Source: publication PMC4109310, “An atomic-resolution view of neofunctionalization in the evolution of apicomplexan lactate dehydrogenases” (eLife, 2014)

Experiments:
[1] = target: T1, RbMDH (Rickettsia bellii, UniProt Q1RIT9); type: biochemical
T1 construct: gene mdh

[2] = test system: AncMDH2; type: biochemical, synthetic construct; conditions: 200 uM NADH, 50 mM Tris pH 7.5, 50 mM KCl, 25 C

T1 sequence (Q1RIT9 whole entry, looked up): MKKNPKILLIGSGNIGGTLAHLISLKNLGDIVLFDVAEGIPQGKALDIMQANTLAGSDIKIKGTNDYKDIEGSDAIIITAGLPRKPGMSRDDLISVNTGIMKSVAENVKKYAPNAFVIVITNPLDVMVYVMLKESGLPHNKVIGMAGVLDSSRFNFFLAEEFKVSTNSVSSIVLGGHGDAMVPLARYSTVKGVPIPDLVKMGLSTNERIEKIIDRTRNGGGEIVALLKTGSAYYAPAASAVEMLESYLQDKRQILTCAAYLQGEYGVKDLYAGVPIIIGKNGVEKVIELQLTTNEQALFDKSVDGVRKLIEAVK

Row | SMILES | KM [1] | Km [2]
1 | O=C(O)CC(=O)C(=O)O [oxaloacetate] | RbMDH is a representative α-proteobacterial MDH from Rickettsia bellii | –
2 | CC(=O)C(=O)O [pyruvate] | – | 20 mM
